Assay results: ChEMBL document CHEMBL1926576, “Fragment based lead discovery of small molecule inhibitors for the EPHA4 receptor tyrosine kinase” (Eur J Med Chem, 2012)

Assays:
[1] = biological target: NUAK family SNF1-like kinase 1 (Homo sapiens) (UniProt O60285); assay: Inhibition of NUAK1 assessed as residual activity at 10 uM using [33P-ATP] by radiometric filter binding assay
[2] = biological target: Mitogen-activated protein kinase 13 (Homo sapiens) (UniProt O15264); assay: Inhibition of p38delta MAPK assessed as residual activity at 10 uM using [33P-ATP] by radiometric filter binding assay
[3] = biological target: Serine/threonine-protein kinase PAK 6 (Homo sapiens) (UniProt Q9NQU5); assay: Inhibition of PAK6 assessed as residual activity at 10 uM using [33P-ATP] by radiometric filter binding assay
[4] = Inhibition of PHK assessed as residual activity at 10 uM using [33P-ATP] by radiometric filter binding assay
[5] = biological target: Serine/threonine-protein kinase pim-2 (Homo sapiens) (UniProt Q9P1W9); assay: Inhibition of PIM2 assessed as residual activity at 10 uM using [33P-ATP] by radiometric filter binding assay
[6] = biological target: Serine/threonine-protein kinase pim-3 (Homo sapiens) (UniProt Q86V86); assay: Inhibition of PIM3 assessed as residual activity at 10 uM using [33P-ATP] by radiometric filter binding assay
[7] = biological target: RAC-beta serine/threonine-protein kinase (Homo sapiens) (UniProt P31751); assay: Inhibition of PKBbeta assessed as residual activity at 10 uM using [33P-ATP] by radiometric filter binding assay
[8] = biological target: Rho-associated protein kinase 2 (Homo sapiens) (UniProt O75116); assay: Inhibition of ROCK2 assessed as residual activity at 10 uM using [33P-ATP] by radiometric filter binding assay
[9] = biological target: Ribosomal protein S6 kinase alpha-3 (Homo sapiens) (UniProt P51812); assay: Inhibition of RSK2 assessed as residual activity at 10 uM using [33P-ATP] by radiometric filter binding assay
[10] = biological target: Myosin light chain kinase, smooth muscle (Homo sapiens) (UniProt Q15746); assay: Inhibition of SmMLCK assessed as residual activity at 10 uM using [33P-ATP] by radiometric filter binding assay
[11] = biological target: Dual specificity testis-specific protein kinase 1 (Homo sapiens) (UniProt Q15569); assay: Inhibition of TESK1 assessed as residual activity at 10 uM using [33P-ATP] by radiometric filter binding assay
[12] = biological target: Tau-tubulin kinase 1 (Homo sapiens) (UniProt Q5TCY1); assay: Inhibition of TTBK1 assessed as residual activity at 10 uM using [33P-ATP] by radiometric filter binding assay
Ephrin type-A receptor 4 = Ephrin type-A receptor 4 (Homo sapiens, UniProt P54764); assay: Inhibition of his-tagged EPHA4-mediated poly(Glu,Tyr) phosphorylation after 75 mins using E4:Y1 as substrate by fluorescence assay
[13] = biological target: Mitogen-activated protein kinase kinase kinase 5 (Homo sapiens) (UniProt Q99683); assay: Inhibition of ASK1 assessed as residual activity at 10 uM using [33P-ATP] by radiometric filter binding assay
[14] = biological target: Serine/threonine-protein kinase BRSK2 (Homo sapiens) (UniProt Q8IWQ3); assay: Inhibition of BRSK2 assessed as residual activity at 10 uM using [33P-ATP] by radiometric filter binding assay
[15] = biological target: Tyrosine-protein kinase BTK (Homo sapiens) (UniProt Q06187); assay: Inhibition of BTK assessed as residual activity at 10 uM using [33P-ATP] by radiometric filter binding assay
[16] = biological target: Tyrosine-protein kinase CSK (Homo sapiens) (UniProt P41240); assay: Inhibition of CSK assessed as residual activity at 10 uM using [33P-ATP] by radiometric filter binding assay
[17] = biological target: Dual specificity tyrosine-phosphorylation-regulated kinase 2 (Homo sapiens) (UniProt Q92630); assay: Inhibition of DYRK2 assessed as residual activity at 10 uM using [33P-ATP] by radiometric filter binding assay
[18] = biological target: Eukaryotic elongation factor 2 kinase (Homo sapiens) (UniProt O00418); assay: Inhibition of EF2K assessed as residual activity at 10 uM using [33P-ATP] by radiometric filter binding assay
[19] = biological target: Ephrin type-B receptor 1 (Homo sapiens) (UniProt P54762); assay: Inhibition of EPHB1 assessed as residual activity at 10 uM using [33P-ATP] by radiometric filter binding assay
[20] = biological target: Fibroblast growth factor receptor 1 (Homo sapiens) (UniProt P11362); assay: Inhibition of FGF-R1 assessed as residual activity at 10 uM using [33P-ATP] by radiometric filter binding assay
[21] = biological target: Mitogen-activated protein kinase kinase kinase kinase 2 (Homo sapiens) (UniProt Q12851); assay: Inhibition of GCK assessed as residual activity at 10 uM using [33P-ATP] by radiometric filter binding assay
[22] = biological target: Receptor tyrosine-protein kinase erbB-4 (Homo sapiens) (UniProt Q15303); assay: Inhibition of HER4 assessed as residual activity at 10 uM using [33P-ATP] by radiometric filter binding assay
[23] = biological target: Homeodomain-interacting protein kinase 3 (Homo sapiens) (UniProt Q9H422); assay: Inhibition of HIPK3 assessed as residual activity at 10 uM using [33P-ATP] by radiometric filter binding assay
[24] = biological target: Insulin-like growth factor 1 receptor (Homo sapiens) (UniProt P08069); assay: Inhibition of IGF-1R assessed as residual activity at 10 uM using [33P-ATP] by radiometric filter binding assay
[25] = biological target: Interleukin-1 receptor-associated kinase 1 (Homo sapiens) (UniProt P51617); assay: Inhibition of IRAK1 assessed as residual activity at 10 uM using [33P-ATP] by radiometric filter binding assay
[26] = biological target: MAP kinase-activated protein kinase 3 (Homo sapiens) (UniProt Q16644); assay: Inhibition of MAPKAP-K3 assessed as residual activity at 10 uM using [33P-ATP] by radiometric filter binding assay
[27] = biological target: MAP/microtubule affinity-regulating kinase 4 (Homo sapiens) (UniProt Q96L34); assay: Inhibition of MARK4 assessed as residual activity at 10 uM using [33P-ATP] by radiometric filter binding assay
[28] = biological target: Misshapen-like kinase 1 (Homo sapiens) (UniProt Q8N4C8); assay: Inhibition of MINK1 assessed as residual activity at 10 uM using [33P-ATP] by radiometric filter binding assay
[29] = biological target: Serine/threonine-protein kinase 26 (Homo sapiens) (UniProt Q9P289); assay: Inhibition of MST4 assessed as residual activity at 10 uM using [33P-ATP] by radiometric filter binding assay
[30] = biological target: Serine/threonine-protein kinase Nek2 (Homo sapiens) (UniProt P51955); assay: Inhibition of NEK2alpha assessed as residual activity at 10 uM using [33P-ATP] by radiometric filter binding assay
[31] = biological target: 3-phosphoinositide-dependent protein kinase 1 (Homo sapiens) (UniProt O15530); assay: Inhibition of PDK1 assessed as residual activity at 10 uM using [33P-ATP] by radiometric filter binding assay
Chain of 3-phosphoinositide-dependent protein kinase 1 (Homo sapiens) (O15530 whole entry, looked up): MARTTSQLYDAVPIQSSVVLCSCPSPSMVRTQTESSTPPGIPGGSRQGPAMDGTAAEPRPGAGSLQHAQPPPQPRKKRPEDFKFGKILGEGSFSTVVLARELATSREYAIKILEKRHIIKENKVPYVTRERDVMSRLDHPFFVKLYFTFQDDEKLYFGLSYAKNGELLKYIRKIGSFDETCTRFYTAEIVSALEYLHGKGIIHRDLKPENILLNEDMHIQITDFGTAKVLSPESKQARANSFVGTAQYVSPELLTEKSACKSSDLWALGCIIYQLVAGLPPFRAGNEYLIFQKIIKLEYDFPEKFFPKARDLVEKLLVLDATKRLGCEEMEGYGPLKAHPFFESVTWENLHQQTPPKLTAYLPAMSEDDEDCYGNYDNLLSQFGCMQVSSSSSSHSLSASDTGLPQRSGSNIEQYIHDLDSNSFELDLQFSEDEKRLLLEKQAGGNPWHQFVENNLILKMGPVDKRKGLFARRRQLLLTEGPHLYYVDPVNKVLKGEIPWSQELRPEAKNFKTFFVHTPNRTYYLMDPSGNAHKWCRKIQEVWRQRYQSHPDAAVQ

Chain of Dual specificity testis-specific protein kinase 1 (Homo sapiens) (Q15569 whole entry, looked up): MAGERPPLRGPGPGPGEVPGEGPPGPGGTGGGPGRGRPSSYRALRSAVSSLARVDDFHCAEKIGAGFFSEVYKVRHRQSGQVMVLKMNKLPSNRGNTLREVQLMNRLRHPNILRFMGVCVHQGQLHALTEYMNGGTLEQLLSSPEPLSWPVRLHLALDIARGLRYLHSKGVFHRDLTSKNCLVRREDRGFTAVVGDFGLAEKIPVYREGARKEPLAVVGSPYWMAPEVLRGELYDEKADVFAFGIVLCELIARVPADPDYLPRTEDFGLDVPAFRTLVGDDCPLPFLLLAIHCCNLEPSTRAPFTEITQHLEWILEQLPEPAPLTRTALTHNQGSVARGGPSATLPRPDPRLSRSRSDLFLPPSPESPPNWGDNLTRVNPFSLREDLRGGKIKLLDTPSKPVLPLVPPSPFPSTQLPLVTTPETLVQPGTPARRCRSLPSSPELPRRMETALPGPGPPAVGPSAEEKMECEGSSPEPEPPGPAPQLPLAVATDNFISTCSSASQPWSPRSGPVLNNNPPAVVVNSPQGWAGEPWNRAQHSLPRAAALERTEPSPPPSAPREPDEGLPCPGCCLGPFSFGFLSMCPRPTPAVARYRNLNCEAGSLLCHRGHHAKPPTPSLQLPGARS
Chain of Serine/threonine-protein kinase PAK 6 (Homo sapiens) (Q9NQU5 whole entry, looked up): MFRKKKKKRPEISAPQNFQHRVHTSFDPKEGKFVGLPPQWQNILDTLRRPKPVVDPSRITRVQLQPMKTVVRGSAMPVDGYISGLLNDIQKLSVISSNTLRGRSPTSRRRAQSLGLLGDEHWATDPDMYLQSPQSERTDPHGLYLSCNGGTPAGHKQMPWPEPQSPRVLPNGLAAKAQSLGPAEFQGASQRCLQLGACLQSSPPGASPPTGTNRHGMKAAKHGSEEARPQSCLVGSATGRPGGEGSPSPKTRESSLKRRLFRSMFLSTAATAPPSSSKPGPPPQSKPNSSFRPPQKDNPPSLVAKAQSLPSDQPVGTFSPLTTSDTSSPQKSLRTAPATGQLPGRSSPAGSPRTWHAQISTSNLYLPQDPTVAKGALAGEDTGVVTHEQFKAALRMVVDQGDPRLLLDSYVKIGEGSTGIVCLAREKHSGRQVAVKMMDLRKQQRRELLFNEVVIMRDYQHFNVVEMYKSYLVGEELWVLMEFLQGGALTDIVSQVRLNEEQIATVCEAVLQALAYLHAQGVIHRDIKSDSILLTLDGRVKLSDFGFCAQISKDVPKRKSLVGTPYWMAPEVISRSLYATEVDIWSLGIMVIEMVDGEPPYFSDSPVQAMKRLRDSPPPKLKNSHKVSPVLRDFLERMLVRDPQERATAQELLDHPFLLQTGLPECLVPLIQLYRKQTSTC
Chain of Tyrosine-protein kinase CSK (Homo sapiens) (P41240 2-450 limits assumed): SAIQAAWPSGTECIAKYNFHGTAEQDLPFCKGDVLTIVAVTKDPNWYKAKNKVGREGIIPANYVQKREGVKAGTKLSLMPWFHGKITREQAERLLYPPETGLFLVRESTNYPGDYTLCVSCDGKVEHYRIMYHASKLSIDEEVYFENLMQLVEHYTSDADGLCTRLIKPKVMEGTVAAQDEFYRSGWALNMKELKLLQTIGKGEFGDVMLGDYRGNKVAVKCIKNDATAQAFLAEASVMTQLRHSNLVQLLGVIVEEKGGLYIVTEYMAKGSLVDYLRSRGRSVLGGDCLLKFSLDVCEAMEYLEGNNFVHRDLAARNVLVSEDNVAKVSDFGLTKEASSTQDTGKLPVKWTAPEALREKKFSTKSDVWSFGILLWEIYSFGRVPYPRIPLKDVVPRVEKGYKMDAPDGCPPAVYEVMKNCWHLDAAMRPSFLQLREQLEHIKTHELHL
Chain of MAP kinase-activated protein kinase 3 (Homo sapiens) (Q16644 whole entry, looked up): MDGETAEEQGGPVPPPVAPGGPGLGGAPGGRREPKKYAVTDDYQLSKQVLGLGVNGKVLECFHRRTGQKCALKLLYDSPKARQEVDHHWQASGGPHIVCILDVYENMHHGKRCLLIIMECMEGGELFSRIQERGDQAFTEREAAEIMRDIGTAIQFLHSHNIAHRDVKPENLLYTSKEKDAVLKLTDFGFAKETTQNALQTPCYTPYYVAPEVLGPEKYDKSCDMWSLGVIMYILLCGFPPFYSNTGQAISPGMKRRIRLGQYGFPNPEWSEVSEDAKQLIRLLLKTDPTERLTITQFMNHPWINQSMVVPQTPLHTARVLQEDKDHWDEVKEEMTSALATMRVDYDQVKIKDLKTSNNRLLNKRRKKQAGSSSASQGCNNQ
Chain of Eukaryotic elongation factor 2 kinase (Homo sapiens) (O00418 whole entry): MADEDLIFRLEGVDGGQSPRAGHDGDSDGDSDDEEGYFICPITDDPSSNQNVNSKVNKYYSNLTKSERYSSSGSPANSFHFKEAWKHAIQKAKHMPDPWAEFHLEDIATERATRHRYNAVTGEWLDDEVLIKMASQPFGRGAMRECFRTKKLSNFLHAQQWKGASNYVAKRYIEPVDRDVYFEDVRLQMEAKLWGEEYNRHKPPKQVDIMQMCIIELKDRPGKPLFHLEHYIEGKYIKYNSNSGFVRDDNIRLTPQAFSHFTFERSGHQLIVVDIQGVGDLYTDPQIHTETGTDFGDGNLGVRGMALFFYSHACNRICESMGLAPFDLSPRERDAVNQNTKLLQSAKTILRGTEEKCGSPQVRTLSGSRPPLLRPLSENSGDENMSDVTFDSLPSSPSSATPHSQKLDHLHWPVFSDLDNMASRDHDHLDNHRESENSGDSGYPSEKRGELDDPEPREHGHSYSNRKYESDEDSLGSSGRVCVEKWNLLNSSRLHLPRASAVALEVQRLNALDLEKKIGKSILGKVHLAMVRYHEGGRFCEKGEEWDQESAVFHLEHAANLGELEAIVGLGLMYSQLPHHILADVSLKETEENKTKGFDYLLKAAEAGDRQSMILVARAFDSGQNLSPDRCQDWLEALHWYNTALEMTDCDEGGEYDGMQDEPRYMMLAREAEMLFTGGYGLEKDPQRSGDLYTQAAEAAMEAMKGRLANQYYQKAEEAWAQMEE
Chain of Ephrin type-A receptor 4 (P54764 whole entry): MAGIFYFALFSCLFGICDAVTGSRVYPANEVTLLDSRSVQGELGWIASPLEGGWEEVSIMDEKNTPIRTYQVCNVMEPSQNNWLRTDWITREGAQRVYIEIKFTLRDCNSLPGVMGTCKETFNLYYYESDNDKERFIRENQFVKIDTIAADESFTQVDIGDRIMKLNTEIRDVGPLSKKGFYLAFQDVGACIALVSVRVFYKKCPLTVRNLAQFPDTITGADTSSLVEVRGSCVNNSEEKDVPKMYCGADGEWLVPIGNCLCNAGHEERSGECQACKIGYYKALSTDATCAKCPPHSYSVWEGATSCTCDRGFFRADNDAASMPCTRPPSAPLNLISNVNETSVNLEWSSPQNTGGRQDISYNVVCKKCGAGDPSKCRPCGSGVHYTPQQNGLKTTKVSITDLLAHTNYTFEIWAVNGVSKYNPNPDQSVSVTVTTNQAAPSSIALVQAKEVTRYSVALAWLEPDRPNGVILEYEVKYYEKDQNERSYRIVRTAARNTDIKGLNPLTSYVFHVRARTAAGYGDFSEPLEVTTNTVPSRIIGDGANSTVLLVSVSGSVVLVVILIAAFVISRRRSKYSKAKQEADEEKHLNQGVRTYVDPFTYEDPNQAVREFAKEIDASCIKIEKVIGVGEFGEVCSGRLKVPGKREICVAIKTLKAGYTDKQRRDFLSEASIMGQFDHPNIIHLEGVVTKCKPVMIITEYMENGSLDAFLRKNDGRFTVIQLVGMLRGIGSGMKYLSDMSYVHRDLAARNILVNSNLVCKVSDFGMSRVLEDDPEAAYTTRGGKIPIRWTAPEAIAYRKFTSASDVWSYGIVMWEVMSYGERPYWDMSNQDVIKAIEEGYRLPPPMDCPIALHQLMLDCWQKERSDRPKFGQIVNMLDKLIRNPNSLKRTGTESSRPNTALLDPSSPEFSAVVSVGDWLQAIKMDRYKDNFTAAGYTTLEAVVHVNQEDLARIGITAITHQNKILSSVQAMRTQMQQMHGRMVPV
Chain of RAC-beta serine/threonine-protein kinase (Homo sapiens) (P31751 whole entry): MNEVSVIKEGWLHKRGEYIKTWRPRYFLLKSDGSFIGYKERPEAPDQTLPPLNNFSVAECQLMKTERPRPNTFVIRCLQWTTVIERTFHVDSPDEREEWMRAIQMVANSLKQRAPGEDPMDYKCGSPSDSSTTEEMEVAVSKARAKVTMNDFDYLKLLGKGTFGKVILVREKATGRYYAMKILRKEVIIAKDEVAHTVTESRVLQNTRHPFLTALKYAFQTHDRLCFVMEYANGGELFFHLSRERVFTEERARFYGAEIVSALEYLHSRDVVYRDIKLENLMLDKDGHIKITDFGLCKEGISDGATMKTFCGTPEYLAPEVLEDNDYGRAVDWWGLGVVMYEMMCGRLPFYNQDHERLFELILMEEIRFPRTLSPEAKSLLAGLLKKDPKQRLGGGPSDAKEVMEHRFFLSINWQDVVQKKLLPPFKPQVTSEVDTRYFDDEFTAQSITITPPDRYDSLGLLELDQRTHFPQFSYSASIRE

Compound `Cc1ccc(F)cc1-c1nc2[nH]nc(N)c2c2c1CCCC2` has an Activity [1] of 79%, an Activity [2] of 100% and an Activity [3] of 103%. It also gave an Activity [4] of 86%, an Activity [5] of 100% and an Activity [6] of 82%. For the same compound, the Activity [7] was 77%, the Activity [8] was 90% and the Activity [9] was 82%. For the same compound, the Activity [10] was 63%, the Activity [11] was 23% and the Activity [12] was 94%. It also gave an IC50 (Ephrin type-A receptor 4) of 4.5 µM, an Activity [13] of 99% and an Activity [14] of 73%. For the same compound, the Activity [15] was 30%, the Activity [16] was 35% and the Activity [17] was 101%. For the same compound, the Activity [18] was 114%, the Activity [19] was 4% and the Activity [20] was 55%. For the same compound, the Activity [21] was 59%, the Activity [22] was 56% and the Activity [23] was 94%. For the same compound, the Activity [24] was 71%, the Activity [25] was 87% and the Activity [26] was 84%. The Activity [27] was 74%, the Activity [28] was 65% and the Activity [29] was 52%. The Activity [30] was 91% and the Activity [31] was 103%.
